Patent US20140004201A1, “Treatment of Vascular Diseases Using Encapsulated Cells Encoding and Secreting GLP-1, or a Fragment or Variant Thereof” (Biocompatibles UK Ltd., priority 2010, published 2014)
One block for each molecule: values may come before it. Where no end group is shown, it is not given here.

Assays:
[1] = tested on: Rin-5F cells; assay: Anti-apoptotic efficacy, cycloheximid induced apoptosis; type: cell-based, rat; details: 24 hours
Experimental: 40.000 Rin-5F cells were seeded per 96 well and cultivated for 2 days in RPMI supplemented with 1% L-Glutamin and 10% fetal calf serum. […] After 24 hours cell viability is quantified using AlamarBlue.

[2] = In vitro human plasma stability of GLP-1 CM peptides; type: in vitro ADME; details: 20 ng/ml, 37° C., 3 hours
Experimental: Synthetic GLP-1 peptides (SEQ ID NO: 1syn, SEQ ID NO: 6syn, SEQ ID NO: 7rec, SEQ ID NO: 8syn) were incubated at concentrations of 20 ng/ml with human plasma at 37° C. and 5% CO2, for 3 hours. Dipeptidylpeptidase activity of the plasma was inhibited by a DPP-IV inhibitor (#DPP4, Biotrend).

Molecule: GLP-1(7-37)-IP2-GLP-1(7-37) [CM1]
anti-apoptotic effect ([1]; 1 nM CM1, cycloheximid, serum free, AlamarBlue): significant anti-apoptotic effect | cell viability ([1]; CHX 10 μg/ml and 100 μg/ml, different concentrations of CM1): significant (p<0.01) increase of cell viability

stability in human plasma in vitro (active GLP) [2]: significantly stabilized
Molecule: HAEGTFTSDVSSYLEGQAAKEFIAWLVKGRGRRDFPEEVAIAEELG [SEQ ID NO:8, GLP-1(7-37)-IP2]

B1: GLP-1(7-37)-IP2-RR-GLP2 (protein)
chain: HAEGTFTSDVSSYLEGQAAKEFIAWLVKGRGRRDFPEEVAIAEELGRRHADGSFSDEMSTILDNLATRDFINWLIQTKITDKK
modifications: Description of sequence SEQ ID No 7 (ID7rec, CM2) corresponds to GLP-1(7-37)-IP2-RR-GLP2, 83 aa, 9.4 kD
stability in human plasma in vitro (active GLP) [2]: significantly stabilized
